Measurements published in ChEMBL document CHEMBL1127612, “Maleimidoethyl 3-(tri-n-butylstannyl)hippurate: a useful radioiodination reagent for protein radiopharmaceuticals to enhance target selective radioactivity localization” (J Med Chem, 1994).

Experiments:
Settings in all cases: in vivo
[1] = tested on: Mus musculus; test: Tested for biodistribution of radioactivity after 1 hr of intravenous injection in mice blood; assay type: ADME, organism-based
[2] = tested on: Mus musculus; test: Tested for biodistribution of radioactivity after 3h of intravenous injection in mice blood; assay type: ADME, organism-based
[3] = tested on: Mus musculus; test: Tested for biodistribution of radioactivity after 48 hr of intravenous injection in mice blood; assay type: ADME, organism-based
[4] = tested on: Mus musculus; test: Tested for biodistribution of radioactivity after 6 hr of intravenous injection in mice blood; assay type: ADME, organism-based
[5] = tested on: Mus musculus; test: Tested for biodistribution of radioactivity after 72 hr of intravenous injection in mice blood; assay type: ADME, organism-based
[6] = tested on: Mus musculus; test: Tested for biodistribution of radioactivity after 48 hr of intravenous injection in mice stomach; assay type: ADME, organism-based
[7] = tested on: Mus musculus; test: Tested for biodistribution of radioactivity after 6 hr of intravenous injection in mice intestine; assay type: ADME, organism-based
[8] = tested on: Mus musculus; test: Tested for biodistribution of radioactivity after 48 hr of intravenous injection in mice intestine; assay type: ADME, organism-based
[9] = tested on: Mus musculus; test: Tested for biodistribution of radioactivity after 48 hr of intravenous injection in mice kidneys; assay type: ADME, organism-based
[10] = tested on: Mus musculus; test: Tested for biodistribution of radioactivity after 48 hr of intravenous injection in mice liver; assay type: ADME, organism-based
[11] = tested on: Mus musculus; test: Tested for biodistribution of radioactivity after 48 hr of intravenous injection in mice lung; assay type: ADME, organism-based
[12] = tested on: Mus musculus; test: Tested for biodistribution of radioactivity after 48 hr of intravenous injection in mice neck; assay type: ADME, organism-based
[13] = tested on: Mus musculus; test: Tested for biodistribution of radioactivity after 48 hr of intravenous injection in mice spleen; assay type: ADME, organism-based
[14] = tested on: Mus musculus; test: Tested for biodistribution of radioactivity after 6 hr of intravenous injection in mice kidneys; assay type: ADME, organism-based, Kidney
[15] = tested on: Mus musculus; test: Tested for biodistribution of radioactivity after 6 hr of intravenous injection in mice liver; assay type: ADME, organism-based
[16] = tested on: Mus musculus; test: Tested for biodistribution of radioactivity after 6 hr of intravenous injection in mice lung; assay type: ADME, organism-based
[17] = tested on: Mus musculus; test: Tested for biodistribution of radioactivity after 6 hr of intravenous injection in mice neck; assay type: ADME, organism-based
[18] = tested on: Mus musculus; test: Tested for biodistribution of radioactivity after 10 min of intravenous injection in mice blood; assay type: ADME, organism-based
[19] = tested on: Mus musculus; test: Tested for biodistribution of radioactivity after 10 min of intravenous injection in mice kidneys; assay type: ADME, organism-based
[20] = tested on: Mus musculus; test: Tested for biodistribution of radioactivity after 10 min of intravenous injection in mice liver; assay type: ADME, organism-based
[21] = tested on: Mus musculus; test: Tested for biodistribution of radioactivity after 10 min of intravenous injection in mice lung; assay type: ADME, organism-based
[22] = tested on: Mus musculus; test: Tested for biodistribution of radioactivity after 3h of intravenous injection in mice intestine; assay type: ADME, organism-based
[23] = tested on: Mus musculus; test: Tested for biodistribution of radioactivity after 3h of intravenous injection in mice kidneys; assay type: ADME, organism-based, Kidney
[24] = tested on: Mus musculus; test: Tested for biodistribution of radioactivity after 3h of intravenous injection in mice lung; assay type: ADME, organism-based
[25] = tested on: Mus musculus; test: Tested for biodistribution of radioactivity after 3h of intravenous injection in mice neck; assay type: ADME, organism-based
[26] = tested on: Mus musculus; test: Tested for biodistribution of radioactivity after 3h of intravenous injection in mice spleen; assay type: ADME, organism-based
[27] = tested on: Mus musculus; test: Tested for biodistribution of radioactivity after 3h of intravenous injection in mice stomach; assay type: ADME, organism-based
[28] = tested on: Mus musculus; test: Tested for biodistribution of radioactivity after 10 min of intravenous injection in mice neck; assay type: ADME, organism-based
[29] = tested on: Mus musculus; test: Tested for biodistribution of radioactivity after 10 min of intravenous injection in mice spleen; assay type: ADME, organism-based
[30] = tested on: Mus musculus; test: Tested for biodistribution of radioactivity after 10 min of intravenous injection in mice stomach; assay type: ADME, organism-based
[31] = tested on: Mus musculus; test: Tested for biodistribution of radioactivity after 1 hr of intravenous injection in mice intestine; assay type: ADME, organism-based
[32] = tested on: Mus musculus; test: Tested for biodistribution of radioactivity after 1 hr of intravenous injection in mice liver; assay type: ADME, organism-based
[33] = tested on: Mus musculus; test: Tested for biodistribution of radioactivity after 1 hr of intravenous injection in mice lung; assay type: ADME, organism-based
[34] = tested on: Mus musculus; test: Tested for biodistribution of radioactivity after 6 hr of intravenous injection in mice spleen; assay type: ADME, organism-based
[35] = tested on: Mus musculus; test: Tested for biodistribution of radioactivity after 6 hr of intravenous injection in mice stomach; assay type: ADME, organism-based
[36] = tested on: Mus musculus; test: Tested for biodistribution of radioactivity after 72 hr of intravenous injection in mice intestine; assay type: ADME, organism-based
[37] = tested on: Mus musculus; test: Tested for biodistribution of radioactivity after 72 hr of intravenous injection in mice liver; assay type: ADME, organism-based
[38] = tested on: Mus musculus; test: Tested for biodistribution of radioactivity after 72 hr of intravenous injection in mice lung; assay type: ADME, organism-based
[39] = tested on: Mus musculus; test: Tested for biodistribution of radioactivity after 72 hr of intravenous injection in mice neck; assay type: ADME, organism-based
[40] = tested on: Mus musculus; test: Tested for biodistribution of radioactivity after 72 hr of intravenous injection in mice spleen; assay type: ADME, organism-based
[41] = tested on: Mus musculus; test: Tested for biodistribution of radioactivity after 72 hr of intravenous injection in mice stomach; assay type: ADME, organism-based
[42] = tested on: Mus musculus; test: Tested for biodistribution of radioactivity after 1 hr of intravenous injection in mice neck; assay type: ADME, organism-based
[43] = tested on: Mus musculus; test: Tested for biodistribution of radioactivity after 1 hr of intravenous injection in mice spleen; assay type: ADME, organism-based
[44] = tested on: Mus musculus; test: Tested for biodistribution of radioactivity after 1 hr of intravenous injection in mice stomach; assay type: ADME, organism-based
[45] = tested on: Mus musculus; test: Tested for biodistribution of radioactivity after 24 hr of intravenous injection in mice feces; assay type: ADME, organism-based
[46] = tested on: Mus musculus; test: Tested for biodistribution of radioactivity after 24 hr of intravenous injection in mice intestine; assay type: ADME, organism-based
[47] = tested on: Mus musculus; test: Tested for biodistribution of radioactivity after 24 hr of intravenous injection in mice kidneys; assay type: ADME, organism-based, Kidney
[48] = tested on: Mus musculus; test: Tested for biodistribution of radioactivity after 24 hr of intravenous injection in mice liver; assay type: ADME, organism-based
[49] = tested on: Mus musculus; test: Tested for biodistribution of radioactivity after 24 hr of intravenous injection in mice lung; assay type: ADME, organism-based
[50] = tested on: Mus musculus; test: Tested for biodistribution of radioactivity after 24 hr of intravenous injection in mice neck; assay type: ADME, organism-based
[51] = tested on: Mus musculus; test: Tested for biodistribution of radioactivity after 24 hr of intravenous injection in mice spleen; assay type: ADME, organism-based
[52] = tested on: Mus musculus; test: Tested for biodistribution of radioactivity after 24 hr of intravenous injection in mice stomach; assay type: ADME, organism-based
[53] = tested on: Mus musculus; test: Tested for biodistribution of radioactivity after 3h of intravenous injection in mice liver; assay type: ADME, organism-based
[54] = tested on: Mus musculus; test: Tested for biodistribution of radioactivity after 1 hr of intravenous injection in mice kidneys; assay type: ADME, organism-based, Kidney
[55] = tested on: Mus musculus; test: Tested for biodistribution of radioactivity after 24 hr of intravenous injection in mice urine; assay type: ADME, organism-based
[56] = tested on: Mus musculus; test: Tested for biodistribution of radioactivity after 24 hr of intravenous injection in mice blood; assay type: ADME, organism-based
[57] = tested on: Mus musculus; test: Tested for biodistribution of radioactivity after 10 min of intravenous injection in mice intestine; assay type: ADME, organism-based
[58] = tested on: Mus musculus; test: Tested for biodistribution of radioactivity after 72 hr of intravenous injection in mice kidneys; assay type: ADME, organism-based

**Q.** How did the Dose/g [1] turn out when `N[C@@H](CSC1CC(=O)N(CCOC(=O)CNC(=O)c2cccc(I)c2)C1=O)C(=O)O` (stereo partly drawn) was run?
**A.** 29.3%

**Q.** And the Dose/g [2]?
**A.** 25.11%

**Q.** And the Dose/g [3]?
**A.** 5.78%

**Q.** And the Dose/g [4]?
**A.** 20.31%

**Q.** And the Dose/g [5]?
**A.** 4.22%

**Q.** And the Dose/organ [6]?
**A.** 0.2%

**Q.** What about the Dose/organ [7] of the same molecule?
**A.** 1.27%

**Q.** And the Dose/organ [8]?
**A.** 0.4%

**Q.** What about the Dose/organ [9] of the same molecule?
**A.** 1.12%

**Q.** What about the Dose/organ [10] of the same molecule?
**A.** 1.53%

**Q.** What about the Dose/organ [11] of the same molecule?
**A.** 1.98%

**Q.** And the Dose/organ [12]?
**A.** 0.16%

**Q.** And the Dose/organ [13]?
**A.** 0.92%

**Q.** And the Dose/organ [14]?
**A.** 4.45%

**Q.** What about the Dose/organ [15] of the same molecule?
**A.** 5.39%

**Q.** What about the Dose/organ [16] of the same molecule?
**A.** 7.6%

**Q.** And the Dose/organ [17]?
**A.** 0.45%

**Q.** What about the Dose/organ [18] of the same molecule?
**A.** 33.64%

**Q.** What about the Dose/organ [19] of the same molecule?
**A.** 6.08%

**Q.** And the Dose/organ [20]?
**A.** 9.81%

**Q.** And the Dose/organ [21]?
**A.** 10.37%

**Q.** What about the Dose/organ [22] of the same molecule?
**A.** 1.93%

**Q.** And the Dose/organ [23]?
**A.** 5%

**Q.** What about the Dose/organ [24] of the same molecule?
**A.** 8.06%

**Q.** What about the Dose/organ [25] of the same molecule?
**A.** 0.51%

**Q.** And the Dose/organ [26]?
**A.** 3.67%

**Q.** What about the Dose/organ [27] of the same molecule?
**A.** 1.04%

**Q.** And the Dose/organ [28]?
**A.** 0.34%

**Q.** And the Dose/organ [29]?
**A.** 7.15%

**Q.** And the Dose/organ [30]?
**A.** 0.54%

**Q.** And the Dose/organ [31]?
**A.** 1.96%

**Q.** And the Dose/organ [32]?
**A.** 8.51%

**Q.** What about the Dose/organ [33] of the same molecule?
**A.** 7.08%

**Q.** And the Dose/organ [34]?
**A.** 3.19%

**Q.** And the Dose/organ [35]?
**A.** 0.84%

**Q.** What about the Dose/organ [36] of the same molecule?
**A.** 0.28%

**Q.** What about the Dose/organ [37] of the same molecule?
**A.** 1.05%

**Q.** And the Dose/organ [38]?
**A.** 1.52%

**Q.** And the Dose/organ [39]?
**A.** 0.09%

**Q.** What about the Dose/organ [40] of the same molecule?
**A.** 0.49%

**Q.** And the Dose/organ [41]?
**A.** 0.14%

**Q.** And the Dose/organ [42]?
**A.** 0.75%

**Q.** And the Dose/organ [43]?
**A.** 4.84%

**Q.** And the Dose/organ [44]?
**A.** 0.92%

**Q.** What about the Dose/organ [45] of the same molecule?
**A.** 0.89%

**Q.** What about the Dose/organ [46] of the same molecule?
**A.** 0.67%

**Q.** What about the Dose/organ [47] of the same molecule?
**A.** 2.08%

**Q.** What about the Dose/organ [48] of the same molecule?
**A.** 2.46%

**Q.** And the Dose/organ [49]?
**A.** 4.06%

**Q.** And the Dose/organ [50]?
**A.** 0.32%

**Q.** What about the Dose/organ [51] of the same molecule?
**A.** 1.41%

**Q.** And the Dose/organ [52]?
**A.** 0.28%

**Q.** What about the Dose/organ [53] of the same molecule?
**A.** 6.43%

**Q.** What about the Dose/organ [54] of the same molecule?
**A.** 5.35%

**Q.** What about the Dose/organ [55] of the same molecule?
**A.** 23.39%

**Q.** What about the Dose/g [56] of the same molecule?
**A.** 9.64%

**Q.** And the Dose/organ [57]?
**A.** 0.8%

**Q.** And the Dose/organ [58]?
**A.** 0.82%
